Test results reported in ChEMBL document CHEMBL1201862, “PubChem BioAssay data set” (2004).
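Cells were grown in 96-well plates and exposed to each compound for 48 hours at five concentrations; endpoints were interpolated linearly between bracketing concentrations, or set to the highest concentration if not reached. At the GI50, growth is halved.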 Calls of active or inactive are those of the source. Cut-off read from the data, not from the text of the source: active = GI50 up to about 1.1 µM and inactive = higher.

What was measured:
Test in all cases: inhibition of tumour cell growth, NCI panel, 48 h
K562 = tested on: K562
CAKI-1 = tested on: CAKI-1
HCT-116 = tested on: HCT-116
SF-539 = tested on: SF-539
SN12C = tested on: SN12C
SW-620 = tested on: SW-620
SK-MEL-5 = tested on: SK-MEL-5
KM-20L2 = tested on: KM-20L2
HCC 2998 = tested on: HCC 2998
M19-MEL = tested on: M19-MEL
SNB-78 = tested on: SNB-78
HCT-15 = tested on: HCT-15
A498 = tested on: A498
HL-60 = tested on: HL-60
SK-OV-3 = tested on: SK-OV-3
UO-31 = tested on: UO-31
NCI-H23 = tested on: NCI-H23
U-251 = tested on: U-251
IGROV-1 = tested on: IGROV-1
A549 = tested on: A549
SF-268 = tested on: SF-268
TK-10 = tested on: TK-10
DMS-273 = tested on: DMS-273
OVCAR-8 = tested on: OVCAR-8
HOP-18 = tested on: HOP-18
ACHN = tested on: ACHN
HOP-62 = tested on: HOP-62
786-0 = tested on: 786-0
RXF 631 = tested on: RXF 631
XF498 = tested on: XF498
M14 = tested on: M14
EKVX = tested on: EKVX
HT-29 = tested on: HT-29
NCI-H460 = tested on: NCI-H460
SK-MEL-28 = tested on: SK-MEL-28
SNB-75 = tested on: SNB-75
MOLT-4 = tested on: MOLT-4
LXFL 529 = tested on: LXFL 529
LOX IMVI = tested on: LOX IMVI
CCRF-CEM = tested on: CCRF-CEM
COLO 205 = tested on: COLO 205
OVCAR-4 = tested on: OVCAR-4
UACC-62 = tested on: UACC-62
DMS-114 = tested on: DMS-114
DLD-1 = tested on: DLD-1
SNB-19 = tested on: SNB-19
SF-295 = tested on: SF-295
UACC-257 = tested on: UACC-257
Malme-3M = tested on: Malme-3M
OVCAR-3 = tested on: OVCAR-3
HOP-92 = tested on: HOP-92
NCI-H522 = tested on: NCI-H522
SK-MEL-2 = tested on: SK-MEL-2
RXF 393 = tested on: RXF 393
RPMI-8226 = tested on: RPMI-8226
KM12 = tested on: KM12
SR = tested on: SR
OVCAR-5 = tested on: OVCAR-5
NCI-H226 = tested on: NCI-H226

With COc1ccc(C(=O)O/N=C2\CCCC\C2=C/c2ccccc2)cc1 the GI50 (K562) was > 10 µM (inactive), the GI50 (CAKI-1) was 81.5 µM (inactive) and the GI50 (HCT-116) was > 100 µM (inactive). The GI50 (SF-539) was 27.5 µM (inactive), the GI50 (SN12C) was > 100 µM (inactive) and the GI50 (SW-620) was > 100 µM (inactive). For the same compound, the GI50 (SK-MEL-5) was > 100 µM (inactive), the GI50 (KM-20L2) was > 100 µM (inactive) and the GI50 (HCC 2998) was > 100 µM (inactive). For the same compound, the GI50 (M19-MEL) was > 100 µM (inactive), the GI50 (SNB-78) was 34 µM (inactive) and the GI50 (HCT-15) was > 100 µM. The GI50 (A498) was 74.8 µM (inactive), the GI50 (HL-60) was > 100 µM (inactive) and the GI50 (SK-OV-3) was > 100 µM (inactive). The GI50 (UO-31) was > 100 µM (inactive), the GI50 (NCI-H23) was 15.4 µM (inactive) and the GI50 (U-251) was 57.3 µM (inactive). For the same compound, the GI50 (IGROV-1) was > 100 µM (inactive), the GI50 (A549) was > 100 µM (inactive) and the GI50 (SF-268) was 67.1 µM (inactive). The GI50 (TK-10) was 68.7 µM (inactive), the GI50 (DMS-273) was > 100 µM (inactive) and the GI50 (OVCAR-8) was > 100 µM (inactive). For the same compound, the GI50 (HOP-18) was 51.5 µM (inactive), the GI50 (ACHN) was 67.3 µM (inactive) and the GI50 (HOP-62) was 45.3 µM (inactive). The GI50 (786-0) was 33.8 µM (inactive), the GI50 (RXF 631) was > 100 µM (inactive) and the GI50 (XF498) was 35.5 µM (inactive). For the same compound, the GI50 (M14) was > 100 µM (inactive), the GI50 (EKVX) was > 100 µM (inactive) and the GI50 (HT-29) was > 100 µM (inactive). For the same compound, the GI50 (NCI-H460) was > 100 µM (inactive), the GI50 (SK-MEL-28) was > 100 µM (inactive) and the GI50 (SNB-75) was 28.4 µM (inactive). The GI50 (MOLT-4) was > 100 µM (inactive), the GI50 (LXFL 529) was > 100 µM (inactive) and the GI50 (LOX IMVI) was > 100 µM (inactive). For the same compound, the GI50 (CCRF-CEM) was > 100 µM (inactive), the GI50 (COLO 205) was > 100 µM (inactive) and the GI50 (OVCAR-4) was 27.6 µM (inactive). For the same compound, the GI50 (UACC-62) was > 100 µM (inactive), the GI50 (DMS-114) was 80.7 µM (inactive) and the GI50 (DLD-1) was > 100 µM (inactive). The GI50 (SNB-19) was 58.3 µM (inactive).

O=C1C=C2CCCC2C(C(=O)O)(C(=O)O)C1 (stereo not given) was tested, and the GI50 (K562) was > 100 µM (inactive), the GI50 (CAKI-1) was > 100 µM (inactive) and the GI50 (HCT-116) was > 100 µM (inactive). For the same compound, the GI50 (SF-539) was > 100 µM (inactive), the GI50 (SN12C) was > 100 µM (inactive) and the GI50 (SW-620) was > 100 µM (inactive). The GI50 (SK-MEL-5) was > 100 µM (inactive), the GI50 (HCC 2998) was > 100 µM (inactive) and the GI50 (M19-MEL) was > 100 µM (inactive). For the same compound, the GI50 (SNB-78) was > 100 µM (inactive), the GI50 (SF-295) was > 100 µM (inactive) and the GI50 (UACC-257) was > 100 µM (inactive). For the same compound, the GI50 (HCT-15) was > 100 µM, the GI50 (A498) was > 100 µM (inactive) and the GI50 (HL-60) was > 100 µM (inactive). The GI50 (SK-OV-3) was > 100 µM (inactive), the GI50 (UO-31) was > 100 µM (inactive) and the GI50 (Malme-3M) was > 100 µM (inactive). For the same compound, the GI50 (NCI-H23) was > 100 µM (inactive), the GI50 (U-251) was > 100 µM (inactive) and the GI50 (IGROV-1) was > 100 µM (inactive). For the same compound, the GI50 (A549) was > 100 µM (inactive), the GI50 (SF-268) was > 100 µM (inactive) and the GI50 (TK-10) was > 100 µM (inactive). For the same compound, the GI50 (DMS-273) was > 100 µM (inactive), the GI50 (OVCAR-8) was > 100 µM (inactive) and the GI50 (HOP-62) was > 100 µM (inactive). For the same compound, the GI50 (786-0) was > 100 µM (inactive), the GI50 (RXF 631) was > 100 µM (inactive) and the GI50 (XF498) was > 100 µM (inactive). The GI50 (M14) was > 100 µM (inactive), the GI50 (EKVX) was > 100 µM (inactive) and the GI50 (HT-29) was > 100 µM (inactive). The GI50 (OVCAR-3) was > 100 µM (inactive), the GI50 (NCI-H460) was > 100 µM (inactive) and the GI50 (SK-MEL-28) was > 100 µM (inactive). The GI50 (SNB-75) was > 100 µM (inactive), the GI50 (MOLT-4) was > 100 µM (inactive) and the GI50 (LXFL 529) was > 100 µM (inactive). For the same compound, the GI50 (LOX IMVI) was > 100 µM (inactive), the GI50 (HOP-92) was > 100 µM (inactive) and the GI50 (CCRF-CEM) was > 100 µM (inactive). For the same compound, the GI50 (NCI-H522) was > 100 µM (inactive), the GI50 (SK-MEL-2) was > 100 µM (inactive) and the GI50 (COLO 205) was > 100 µM (inactive). The GI50 (RXF 393) was > 100 µM (inactive), the GI50 (OVCAR-4) was > 100 µM (inactive) and the GI50 (UACC-62) was > 100 µM (inactive). The GI50 (RPMI-8226) was > 100 µM (inactive), the GI50 (DMS-114) was > 100 µM (inactive) and the GI50 (KM12) was > 100 µM (inactive). The GI50 (DLD-1) was > 100 µM (inactive) and the GI50 (SNB-19) was > 100 µM (inactive).

With CN(C)CCNC(=O)c1cccc2c(Nc3ccc(S(N)(=O)=O)cc3)c3ccccc3nc12 the GI50 (K562) was 0.509 µM (active), the GI50 (CAKI-1) was 3.25 µM (inactive) and the GI50 (HCT-116) was 0.356 µM (active). For the same compound, the GI50 (SF-539) was 0.536 µM (active), the GI50 (SN12C) was 0.656 µM (active) and the GI50 (SW-620) was 0.367 µM (active). For the same compound, the GI50 (SK-MEL-5) was 1.67 µM (inactive), the GI50 (KM-20L2) was 2.71 µM (inactive) and the GI50 (HCC 2998) was 1.71 µM (inactive). For the same compound, the GI50 (SR) was 0.0551 µM (active), the GI50 (SNB-78) was 1.82 µM (inactive) and the GI50 (SF-295) was 2.01 µM (inactive). The GI50 (UACC-257) was 2.96 µM (inactive), the GI50 (HCT-15) was 1.83 µM and the GI50 (A498) was 1.69 µM (inactive). For the same compound, the GI50 (HL-60) was 0.228 µM (active), the GI50 (SK-OV-3) was 0.376 µM (active) and the GI50 (OVCAR-5) was 2.32 µM (inactive). For the same compound, the GI50 (UO-31) was 1.87 µM (inactive), the GI50 (Malme-3M) was 1.49 µM (inactive) and the GI50 (NCI-H23) was 1.73 µM (inactive). For the same compound, the GI50 (U-251) was 1.02 µM (active), the GI50 (IGROV-1) was 2.18 µM (inactive) and the GI50 (A549) was 1.79 µM (inactive). For the same compound, the GI50 (SF-268) was 0.746 µM (active), the GI50 (TK-10) was 1.97 µM (inactive) and the GI50 (DMS-273) was 0.783 µM (active). For the same compound, the GI50 (OVCAR-8) was 0.435 µM (active), the GI50 (NCI-H226) was 1.05 µM (active) and the GI50 (HOP-18) was 2.71 µM (inactive). The GI50 (ACHN) was 1.47 µM (inactive), the GI50 (HOP-62) was 3.1 µM (inactive) and the GI50 (786-0) was 1.09 µM (active). For the same compound, the GI50 (RXF 631) was 1.4 µM (inactive), the GI50 (XF498) was 0.209 µM (active) and the GI50 (M14) was 1.67 µM (inactive). The GI50 (EKVX) was 3.05 µM (inactive), the GI50 (HT-29) was 1.26 µM (inactive) and the GI50 (OVCAR-3) was 1.69 µM (inactive). The GI50 (NCI-H460) was 0.337 µM (active), the GI50 (SK-MEL-28) was 1.57 µM (inactive) and the GI50 (SNB-75) was 1.26 µM (inactive). For the same compound, the GI50 (MOLT-4) was 0.0632 µM (active), the GI50 (LXFL 529) was 0.333 µM (active) and the GI50 (LOX IMVI) was 0.531 µM (active). The GI50 (HOP-92) was 1.32 µM (inactive), the GI50 (NCI-H522) was 0.252 µM (active) and the GI50 (SK-MEL-2) was 1.59 µM (inactive). For the same compound, the GI50 (COLO 205) was 0.391 µM (active), the GI50 (OVCAR-4) was 1.7 µM (inactive) and the GI50 (UACC-62) was 1.42 µM (inactive). The GI50 (RPMI-8226) was 7.08 µM (inactive), the GI50 (DMS-114) was 0.461 µM (active) and the GI50 (KM12) was 1.72 µM (inactive). For the same compound, the GI50 (DLD-1) was 1.72 µM (inactive) and the GI50 (SNB-19) was 1.05 µM (active).
